Data reported in US20230114123A1, “METHOD OF STIMULATING ASYMMETRIC DIVISION OF SATELLITE STEM CELLS” (Ottawa Hospital Research Institute, priority 2017, published 2023).

What was measured:
Format in all cases: cell-based, mouse
mdx satellite cells = experiment: Mitotic orientation by p-Aurk staining, mdx myofibers 36 h; conditions: 36 h culture, recombinant EGF vs vehicle, FIG. 3B
Procedure: However, the rate of abnormal cell divisions in mdx satellite cells as evidenced by abnormal patterns of p-Aurk staining was unaffected by EGF stimulation. This observation implies that cell cycle dysregulation is not completely rescued by polarity signaling alone. […] Therefore, to assess whether EGF-driven asymmetric divisions could ameliorate the reduced generation of myogenic progenitors in mdx cultures, single EDL myofibers from mdx mice were cultured for 72 h and immunostained for the expression of Myog.
Characterization of Satellite Cell Divisions. The orientation of mitotic spindles in satellite cells was measured as described in Dumont et al. (2015). Single myofibers were fixed after 36 h of in vitro culture, as described above. Satellite cells were identified by Pax7 expression in the nucleus, as detected by immunofluorescene. Pax7 staining becomes cytoplasmic in mitotic satellite cells after the dissociation of the nuclear envelope, but is still discernable. […] Mitotic satellite cells with p-Aurk staining patterns that were not observed in WT cells, including monopolar, multipolar (>2), and abscission defects were quantified as abnormal. Mitotic orientations were manually counted according to the angle between the mitotic spindle and the tangential plane of the satellite cell's attachment point to the myofiber.

satellite cell divisions = experiment: FDB myofiber screening method validation (YFP(-) divisions); conditions: for percentage of YFP(-) divisions that were symmetric divisions: control 62% (Wnt7a experiment), control 45% (EGF / PTP1b experiment); for percentage of YFP(-) divisions that were asymmetric divisions: control treated cells 55%
Source text: EGFR pathway activators may be identified in a method of screening potential activators. The method includes visualizing isolated, cultured, and stained Flexor Digitorum Brevis (FDB) myofibers from Myf5-Cre/ROSA26-YFP mice in a plurality of Z-stack planes to create a projection image. Muscle satellite cells are identified in the projection image based on Pax7 expression. Of the identified muscle satellite cells: (i) satellite stem cells are identified based on the absence of YFP expression, and (ii) committed satellite progenitor cells are identified based on yellow fluorescence protein (YFP) expression. A potential EGFR pathway activator is administered to the FDB myofibers. The number of symmetric divisions of satellite myogenic cells, identified by the production of two YFP(+) satellite cells, are counted; the number of symmetric satellite stem cell divisions, identified by the production of two YFP(−) satellite cells, are counted; and the number of asymmetric satellite cell divisions, identified by the production of one YFP(+) and one YFP(−) satellite cell, are counted. The potential EGFR pathway activator is identified as an EGFR pathway activator when the percent of YFP(−) divisions that are asymmetric divisions is greater than the corresponding percent in a control sample. The expression “YFP(−) divisions” refers to all cell divisions where one of the daughter cells is YFP(−).
Identification of EGFR pathway activators. Flexor Digitorum brevis (FDB) fibers were isolated from Myf5-Cre/Rosa-YFP mice and digested in 0.25% Collagenase Type I (Sigma) in DMEM (Dulbecco's modified Eagle's medium; high glucose, L-glutamine with 110 mg/ml sodium pyruvate) for 2.5-3 h. Myofibers were dissociated using gentle trituration with a glass pipette.
Myofibers are cultured at 37° C., 5% CO2 for 42 h in myofiber culture media (DMEM supplemented with 20% FBS(Wisent), 1% Chicken Embryo extract (MP Biomediacals), 1% Penicillin/Streptomycin (Cederlane) and 2.5 ng/ml basic Fibroblast Growth Factor (Cedarlane).
Myofibers are first fixed in 2% Paraformaldehyde (PFA) for 5 mins. Myofibers are blocked for 1-2 h in 1% Bovine Serum Albumin, 0.5% TritonX-100, 5% HS and 0.01% Sodium Azide. Primary antibodies are applied in blocking solution for 2 h at room temperature or at 4° C. overnight. Myofibers are washed with PBS and stained with appropriate fluorescently labeled secondary antibodies (Alexa Fluor 488, 546) for 1 hat room temperature. Following washing with PBS, fiber nuclei are stained with DAPI for 5 min. The following antibodies are used: mouse anti-Pax7 (Developmental Studies Hybridoma Bank (DSHB)), chicken anti-GFP (cat. no. ab13970, Abcam).
Satellite cells are focused based on Channel 3 (DAPI) staining. Autofocus is performed by sampling seven (7) z-stacks taken at […] intervals for an extended depth of field of 85.3 μm.
Z-stack images were consolidated to create a projection image with all satellite cells in focus. Image acquisition of a projection image for analysis was created from seven (7) Z-stack images taken at 6.5 μm intervals, for an extended depth of field of 45.5 μm at 200 (Objective 20×) magnification. The projection direction was centered, where the median stacks fall within the center of each myofiber. […]
Potential satellite cells were first identified based on Channel 1 (Pax7) signal, and separated from other satellite cells based on intensity of fluorescence between cells. […]

[1] = test system: dystrophin-deficient satellite stem cells; experiment: EDL myofiber culture, satellite stem cell divisions (mdx Myf5-Cre/R26R-eYFP); conditions: for Average number of asymmetric divisons/fiber / Proportion of YFP- divisions that are asymmetric divisions: mdx myofibers, 42 h of culture
Procedure: EDL fiber Culture and siRNA Transfection. Myofiber culture was performed as described in Dumont, N. A., et al. “Dystrophin expression in muscle stem cells regulates their polarity and asymmetric division.” Nat. Med. (2015) 21:1455-63, which is incorporated herein by reference. Briefly, EDL were carefully dissected and incubated in DMEM with 2% L-glutamine, 4.5% glucose, and 110 mg/mL sodium pyruvate (Gibco) containing 0.2% collagenase I (Sigma) for 45 min. Myofibers were isolated using gentle trituration with a glass pipet. Myofibers were cultured for 36, 42, or 72 h in DMEM containing 20% FBS (Wisent), 1% chick embryo extract (MP Biomedicals), and 2.5 ng/ml bFGF (Cedarlane). For pharmacological inhibition, Lapatinib ditosylate (1 mM in DMSO; Santa
Cruz Biotechnology), PTP1b inhibitor CAS 765317-72-4 (10 mM in DMSO; Santa Cruz Biotechnologies) was added to the culture medium for a final concentration of 1 μM or 10 μM, respectively; equal dilution of DMSO was used as vehicle control.

| Compound | numbers of apicobasal orientated mitotic centrosomes, mdx satellite cells (mdx satellite cells) | rate of abnormal cell divisions (abnormal patterns of p-Aurk staining), mdx satellite cells (mdx satellite cells) | percentage of YFP(-) divisions that were symmetric divisions (satellite cell divisions) | percentage of YFP(-) divisions that were asymmetric divisions (satellite cell divisions) | increase in the rate of asymmetric division, mdx satellite cells ([1]; 42 h culture, recombinant EGF vs vehicle, FIG. 4A) | increase in the absolute number of asymmetric satellite stem cell divisions, mdx ([1]; 42 h of myofiber culture, FIG. 4B) | Average number of asymmetric divisons/fiber [1] | Proportion of YFP- divisions that are asymmetric divisions [1] |
| --- | --- | --- | --- | --- | --- | --- | --- | --- |
| EGF: human recombinant EGF protein (Life Technologies), direct activator of the EGFR pathway | increased numbers of apicobasal orientated mitotic centrosomes | unaffected | 29% | 71% | 67% | 2 fold | 0.436 | 34.60% |
| CCc1oc2cc(S(=O)(=O)Nc3ccc(S(=O)(=O)Nc4nccs4)cc3)ccc2c1C(=O)c1cc(Br)c(O)c(Br)c1 [PTP1b inhibitor, 3-(3,5-dibromo-4-hydroxy-benzoyl)-2-ethyl-benzofuran-6-sulfonicacid-(4-(thiazol-2-ylsulfamyl)-phenyl)-amide, reference compound] | – | – | 33% | 67% | – | – | 0.463 | 33.33% |
